Assay results from US20140286906A1, “USE OF IGF-1 IN THE MODULATION OF TREG CELL ACTIVITY AND THE TREATMENT AND PREVENTION OF AUTOIMMUNE DISORDERS OR DISEASES” (priority 2011, published 2014).
Where two headings read alike, the source gives them in different places.

What was measured:
CD25+ splenic CD4+ cells = experiment: in vitro expansion of FACS-sorted splenic CD4+CD25+ cells; assay type: cell-based, murine; conditions: TCR stimulation with anti-CD3 and anti-CD28 antibodies
Procedure: In a preferred embodiment for expanding Treg cells in vitro/ex vivo, IGF-1 is added at a certain concentration (e.g. between 1 and 100 ng/ml) in a medium that allows for the cells to survive and grow (e.g. in mice, RPM1 1640 plus 10% fetal calf serum plus other additives including beta-mercaptoethanol, Sodium Pyruvate, Penicillin/Streptomycin, L-Glutamine or equivalent defined media). Additionally, T cells are stimulated with anti-CD3. The costimulatory agent is an antibody or ligand specific for a TCR costimulator, such as CD28 (like in example 1) or GITR, as described below.
In animal experiments, the population is isolated normally from murine spleen (but also could be isolated from other tissues, like for example but not restricted to bone marrow, adipose tissue, cord blood derived mononuclear cell, thymus, or peripheral blood) and is sorted using different markers (e.g., CD4 and CD25). This population is defined as CD4+CD25+ and includes the regulatory cells. This population is then treated in the above-mentioned medium in the presence of IGF-1. After several days of culture part of the cells are counted, fixed, permeabilized and analyzed by flow cytometry using an anti-FOXP3 antibody in combination with the same extracellular markers (CD4 and CD25). This allows for the determination of the absolute number of FOXP3 positive cells present in the culture. […]

CD4+CD25+ cells = experiment: Annexin V / living dye apoptosis flow cytometry, CD4+CD25+ cells; assay type: cell-based, murine
Text: The effects of IGF-1 on apoptosis can be measured by flow cytometry. By using a combination of a living dye and Annexin V staining it is possible to determine four different cell populations which correspond to non-apoptotic, necrotic, early and late apoptosis.
Initially, and in order to characterize the in vitro effects of IGF-1 on the different populations of the […] immune system, murine splenic CD4 positive cells were sorted by FACS based on the expression of CD25. This allows for the separation and enrichment of conventional T cells (CD25 negative) and regulatory T cells (CD25 positive). […] To exclude the possibility that the observed expansion was due to the anti-apoptotic properties of IGF-1, the cells in culture were stained with AnnexinV (a marker of apoptosis) and a vital dye, and then analyzed by flow cytometry.

[1] = system: proinflamatory subsets Th1 (IFN-gamma+) and Th17 (IL-17+); experiment: flow cytometry of polarized Th1 and Th17 subsets; assay type: cell-based; conditions: 2 day polarization, 3 day incubation with recombinant IGF-1
Procedure: To determine the effect of IGF-1 in the regulatory subset in vitro (cf. FIG. 4) the number of FOXP3 positive cells is determined by flow cytometric analysis. To analyze other subsets, like the proinflammatory Th1 and Th17 subsets, a similar approach is used but the number of interferon-gamma (Th1) and IL-17 (Th17) positive cells is determined. Additionally, to evaluate the number of proliferating cells at a given moment cells are stained using the intracellular marker Ki67, which is expressed only in cycling cells. The combination of a specific lineage marker (e.g., Foxp3, IFN-g, IL-17) with Ki67 allows for the determination at a given moment of the cells belonging to a certain subset and their proliferative status.
An important aspect regarding the immunomodulatory properties of IGF-1 is the specificity of the effect for a certain cellular subset, in this case Tregs. If IGF-1 was a general anabolic factor affecting equally all subsets, it would no affect the balance of pro-inflammatory/anti-inflammatory players. In order to test the hypothesis that IGF-1 induces immune tolerance by specifically affecting the suppressive function, CD4 positive […] cells were polarized for two days into the IFN-gamma secreting Th1 subset and the IL-17 secreting Th17 subset and then incubated with IGF-1.

CD4+CD25+ splenic cells = experiment: flow cytometry of activation and homing markers on CD4+CD25+ splenic cells; assay type: cell-based, murine; conditions: after IGF-1 treatment in vitro
Text: The expression of certain markers on the surface of the cell is correlated with the degree of activation of the cells and also controls their trafficking and localization and consequently the compartmentalization of the immune responses. This is again measured using flow cytometric methods. For example, cells expressing high levels of CD62L preferentially migrate to secondary lymphoid tissues. However, as these cells enter the periphery (for example when they travel to affected tissues during an autoimmune process) they rapidly acquire an activated phenotype and express higher levels of CD44. Thus upregulation of CD44 is associated with a higher proliferation rate. […] The importance of this observation comes from the fact that in order to exert their suppressive properties, Tregs need to migrate to the affected tissues first. Therefore, IGF-1 not only induces activation of proliferation but also promotes their correct localization.
Finally, the inventors analyzed the ability of IGF-1 to alter the homing properties of the regulatory T cell subset. In 2003, Fisson et al. defined two distinct population of regulatory T cells in homeostatic conditions. In the steady state, some Tregs remain quiescent for long periods of time, whereas the other Treg population divides extensively and express multiple activation markers. […] This pattern of change is also consistent with a more activated phenotype. On one hand, CD44^hiCD62L^lo Treg populations, but not their CD44^loCD62L^hi counterparts, constantly incorporate BrdU, a synthetic analog of thymidine, into newly synthesized DNA in lymphoid tissues (Matsushima and Takashima, 2010). On the other hand, higher levels of CD62L have been associated with a higher capacity of Tregs to migrate to the lymph nodes, while lower levels allows them to migrate to sites of inflammation (Fisson et al., 2003; Bromley et al., 2008). Thus, T regulatory cells expressing lower levels of CD62L would have a higher inflammation-seeking capacity, which has been associated with higher suppressive potential in various inflammation models (Huehn et al., 2005). […] One, IGF-1 is able to activate a complex pathway resulting in Treg activation leading to proliferation and to selective homing and migration to the sites of inflammation. The second conclusion comes from the observation that sequential migration from blood to the target tissue and then to draining lymph nodes is required for nTreg to differentiate and execute fully their suppressive function, by inhibiting dendritic cells in the peripheral tissue and T effector cell responses in dLN and periphery (Zhang et al., 2009). Thus, IGF-1 treatment not only results in higher numbers of T regulatory cells but also in altering the trafficking of these cells to achieve a higher suppressive effect. […]

[2] = system: experimental autoimmune encephalomyelitis (EAE); conditions: cited from earlier work

Q: With Insulin-like growth factor-1 [IGF-1] as the substance, how does the “in vitro expansion of CD25 positive subset” value (CD25+ splenic CD4+ cells) read?
A: consistently promoted the in vitro expansion

Q: And the “distribution of Annexin V and living dye stained populations” value (CD4+CD25+ cells)?
A: No difference

Q: And the “cells expressing IFN-gamma (Th1)” value [1]?
A: no effect

Q: What about the “cells expressing IL-17 (Th17)” value [1] of the same substance?
A: no effect

Q: What about the CD44 surface expression (CD4+CD25+ splenic cells) of the same substance?
A: upregulated

Q: And the CD62L surface expression (CD4+CD25+ splenic cells)?
A: down

Q: And the CD71 surface expression (CD4+CD25+ splenic cells)?
A: upregulated

Q: And the “course of EAE” value ([2]; 10 mg/kg per day given after disease onset (Lovett-Racke et al.))?
A: did not significantly alter the course of disease

Q: What about the “course of EAE” value ([2]; 10 mg/kg per day given before disease onset (Lovett-Racke et al.)) of the same substance?
A: mild protection

Q: What about the “clinical course of EAE” value ([2]; administration during the acute phase (Cannella et al.)) of the same substance?
A: some transient clinical amelioration

Q: And the “clinical course of EAE” value ([2]; chronic phase (Cannella et al.))?
A: no effect
